Measurements: patent publication US20090118274A1, “MONOCYCLIC AMINOPROPYL TETRAHYDRO-PYRAZOLO-PYRIDINE MODULATORS OF CATHEPSIN S” (priority 2007, published 2009)

target: T1, Recombinant human cathepsin S (CatS) (Homo sapiens, UniProt P25774); assay: Recombinant human cathepsin S (CatS) fluorogenic substrate inhibition assay; format: biochemical; details: average of results obtained; substrate Z-Valine-Valine-Arginine-AMC 10 μM, pH 5.0; read-out: CatS IC50
T1 construct: made in house
Experimental: Recombinant human cathepsin S (CatS) was expressed in the baculovirus system and purified in one step with a thiopropyl-sepharose column. […] The assay is run in 150 mM sodium acetate pH 5.0 containing 1.5 mM DTT and 150 mM NaCl. […] Measurements are taken every min for 20 min. The rate is calculated from the slope of the increase in fluorescence and the percent inhibition is calculated from this.

T1 sequence (P25774 115-331): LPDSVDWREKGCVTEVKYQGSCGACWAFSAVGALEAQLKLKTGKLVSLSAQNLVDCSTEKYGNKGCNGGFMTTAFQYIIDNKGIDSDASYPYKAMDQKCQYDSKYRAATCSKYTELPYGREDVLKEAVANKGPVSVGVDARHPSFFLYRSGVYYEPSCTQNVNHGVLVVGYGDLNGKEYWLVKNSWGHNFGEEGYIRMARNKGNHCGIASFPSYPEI

Row | Structure (SMILES) | IC50
1 | CC(=O)N1CCc2c(c(-c3ccc(C(F)(F)F)c(CNC(=O)c4ccc(F)cc4)c3)nn2CC(O)CN2CCC3(CCNC3=O)CC2)C1 (stereo not shown) [Example 7, N-(5-{5-Acetyl-1-[2-hydroxy-3-(1-oxo-2,8-diaza-spiro[4.5]dec-8-yl)-propyl]-4,5,6,7-tetrahydro-1H-pyrazolo[4,3-c]pyridin-3-yl}-2-trifluoromethylbenzyl)-4-fluoro-benzamide] | 70 nM
2 | NC(=O)N1CCc2c(c(-c3ccc(C(F)(F)F)c(CNC(=O)c4ccc(F)cc4)c3)nn2CC(O)CN2CCC3(CCNC3=O)CC2)C1 (stereo not shown) [Example 9, 3-{3-[(4-Fluoro-benzoylamino)-methyl]-4-trifluoromethyl-phenyl}-1-[2-hydroxy-3-(1-oxo-2,8-diaza-spiro[4.5]dec-8-yl)-propyl]-1,4,6,7-tetrahydro-pyrazolo[4,3-c]pyridine-5-carboxylic acid amide] | 40 nM
3 | CS(=O)(=O)N1CCc2c(c(-c3ccc(C(F)(F)F)c(C(=O)NCc4ccccc4)c3)nn2CC(O)CN2CCCC2)C1 (stereo not shown) [Example 193, N-Benzyl-5-[1-(2-hydroxy-3-pyrrolidin-1-yl-propyl)-5-methanesulfonyl-4,5,6,7-tetrahydro-1H-pyrazolo[4,3-c]pyridin-3-yl]-2-trifluoromethyl-benzamide] | 5600 nM
4 | CS(=O)(=O)N1CCc2c(c(-c3ccc(C(F)(F)F)c(CNC(=O)c4ccc(O)cc4)c3)nn2CC(O)CN2CCCC2)C1 (stereo not shown) [Example 156, 4-Hydroxy-N-{5-[1-(2-hydroxy-3-pyrrolidin-1-yl-propyl)-5-methanesulfonyl-4,5,6,7-tetrahydro-1H-pyrazolo[4,3-c]pyridin-3-yl]-2-trifluoromethyl-benzyl}-benzamide] | 260 nM
5 | CS(=O)(=O)N1CCc2c(c(-c3ccc(C(F)(F)F)c(CNS(=O)(=O)c4ccccc4)c3)nn2CC(O)CN2CCCC2)C1 (stereo not shown) [Example 66, N-{5-[1-(2-Hydroxy-3-pyrrolidin-1-yl-propyl)-5-methanesulfonyl-4,5,6,7-tetrahydro-1H-pyrazolo[4,3-c]pyridin-3-yl]-2-trifluoromethyl-benzyl}-benzenesulfonamide] | 2900 nM
6 | CS(=O)(=O)N1CCc2c(c(-c3ccc(C(F)(F)F)c(CNC(=O)c4ccc(F)cc4)c3)nn2CC(O)CN2CCN(CCO)CC2)C1 (stereo not shown) [Example 98, 4-Fluoro-N-[5-(1-{2-hydroxy-3-[4-(2-hydroxy-ethyl)-piperazin-1-yl]-propyl}-5-methanesulfonyl-4,5,6,7-tetrahydro-1H-pyrazolo[4,3-c]pyridin-3-yl)-2-trifluoromethyl-benzyl]-benzamide] | 280 nM
7 | CC(C)=CC(=O)NCc1cc(-c2nn(CC(O)CN3CCOCC3)c3c2CN(S(C)(=O)=O)CC3)ccc1C(F)(F)F (stereo not shown) [Example 153, 3-Methyl-but-2-enoic acid 5-[1-(2-hydroxy-3-morpholin-4-yl-propyl)-5-methanesulfonyl-4,5,6,7-tetrahydro-1H-pyrazolo[4,3-c]pyridin-3-yl]-2-trifluoromethyl-benzylamide] | 140 nM
8 | CS(=O)(=O)N1CCc2c(c(-c3ccc(C(F)(F)F)c(CNC(=O)c4cccc(Cl)c4)c3)nn2CC(O)CN2CCCC2)C1 (stereo not shown) [Example 166, 3-Chloro-N-{5-[1-(2-hydroxy-3-pyrrolidin-1-yl-propyl)-5-methanesulfonyl-4,5,6,7-tetrahydro-1H-pyrazolo[4,3-c]pyridin-3-yl]-2-trifluoromethyl-benzyl}-benzamide] | 460 nM
9 | CS(=O)(=O)N1CCc2c(c(-c3ccc(C(F)(F)F)c(CNC(=O)c4ccc(F)c(F)c4)c3)nn2CC(O)CN2CCCC2)C1 (stereo not shown) [Example 60, 3,4-Difluoro-N-{5-[1-(2-hydroxy-3-pyrrolidin-1-yl-propyl)-5-methanesulfonyl-4,5,6,7-tetrahydro-1H-pyrazolo[4,3-c]pyridin-3-yl]-2-trifluoromethyl-benzyl}-benzamide] | 210 nM
10 | CS(=O)(=O)N1CCc2c(c(-c3ccc(Cl)c(COCc4ccccc4)c3)nn2CCCN2CCCC2)C1 [Example 71, 3-(3-Benzyloxymethyl-4-chloro-phenyl)-5-methanesulfonyl-1-(3-pyrrolidin-1-yl-propyl)-4,5,6,7-tetrahydro-1H-pyrazolo[4,3-c]pyridine] | 1950 nM
11 | CS(=O)(=O)N1CCc2c(c(-c3ccc(C(F)(F)F)c(CNC(=O)C4CCCCCC4)c3)nn2CCCN2CCC3(CCNC3=O)CC2)C1 [Example 158, Cycloheptanecarboxylic acid 5-{5-methanesulfonyl-1-[3-(1-oxo-2,8-diaza-spiro[4.5]dec-8-yl)-propyl]-4,5,6,7-tetrahydro-1H-pyrazolo[4,3-c]pyridin-3-yl}-2-trifluoromethyl-benzylamide] | 280 nM
12 | CC(C)CC(=O)NCc1cc(-c2nn(CC(O)CN3CCC(C(C)(C)C)CC3)c3c2CN(C(=O)CO)CC3)ccc1C(F)(F)F (stereo not shown) [Example 298, N-{5-[1-[3-(4-tert-Butyl-piperidin-1-yl)-2-hydroxy-propyl]-5-(2-hydroxy-acetyl)-4,5,6,7-tetrahydro-1H-pyrazolo[4,3-c]pyridin-3-yl]-2-trifluoromethyl-benzyl}-3-methyl-butyramide] | 80 nM
13 | CN(C)c1ccccc1C(=O)NCc1cc(-c2nn(CC(O)CN3CCCC3)c3c2CN(S(C)(=O)=O)CC3)ccc1C(F)(F)F (stereo not shown) [Example 239, 2-Dimethylamino-N-{5-[1-(2-hydroxy-3-pyrrolidin-1-yl-propyl)-5-methanesulfonyl-4,5,6,7-tetrahydro-1H-pyrazolo[4,3-c]pyridin-3-yl]-2-trifluoromethyl-benzyl}-benzamide] | 950 nM
14 | CN(C)C(=O)CCc1cc(-c2nn(CCCN3CCOCC3)c3c2CN(S(C)(=O)=O)CC3)ccc1Cl [Example 295, 3-{2-Chloro-5-[5-methanesulfonyl-1-(3-morpholin-4-yl-propyl)-4,5,6,7-tetrahydro-1H-pyrazolo[4,3-c]pyridin-3-yl]-phenyl}-N,N-dimethyl-propionamide] | 4850 nM
15 | CS(=O)(=O)N1CCc2c(c(-c3ccc(Cl)c(CNC(=O)c4ccc(F)cc4)c3)nn2CC(O)CN2CCC3(CCNC3=O)CC2)C1 (stereo not shown) [Example 11, N-(2-Chloro-5-{1-[2-hydroxy-3-(1-oxo-2,8-diaza-spiro[4.5]dec-8-yl)-propyl]-5-methanesulfonyl-4,5,6,7-tetrahydro-1H-pyrazolo[4,3-c]pyridin-3-yl}-benzyl)-4-fluoro-benzamide] | 90 nM
16 | Cc1ccc(C(=O)NCc2cc(-c3nn(CC(O)CN4CCCC4)c4c3CN(S(C)(=O)=O)CC4)ccc2C(F)(F)F)cc1 (stereo not shown) [Example 214] | 580 nM
17 | CC(C)CC(=O)NCc1cc(-c2nn(CC(O)CN3CCC(NC(=O)OC(C)(C)C)CC3)c3c2CN(S(C)(=O)=O)CC3)ccc1C(F)(F)F (stereo not shown) [Example 244] | 50 nM
18 | CS(=O)(=O)N1CCc2c(c(-c3ccc(C(F)(F)F)c(CNC(=O)c4ccccc4)c3)nn2CC(O)CN2CCC3(CCNC3=O)CC2)C1 (stereo not shown) [Example 145, N-(5-{1-[2-Hydroxy-3-(1-oxo-2,8-diaza-spiro[4.5]dec-8-yl)-propyl]-5-methanesulfonyl-4,5,6,7-tetrahydro-1H-pyrazolo[4,3-c]pyridin-3-yl}-2-trifluoromethyl-benzyl)-benzamide] | 130 nM
19 | CS(=O)(=O)N1CCc2c(c(-c3ccc(C(F)(F)F)c(CNC(=O)C4CCCCC4)c3)nn2CC(O)CN2CCCC2)C1 (stereo not shown) [Example 168, Cyclohexanecarboxylic acid 5-[1-(2-hydroxy-3-pyrrolidin-1-yl-propyl)-5-methanesulfonyl-4,5,6,7-tetrahydro-1H-pyrazolo[4,3-c]pyridin-3-yl}-2-trifluoromethyl-benzylamide] | 500 nM
20 | CC(=O)N1CCC(C(=O)NCc2cc(-c3nn(CC(O)CN4CCCC4)c4c3CN(S(C)(=O)=O)CC4)ccc2C(F)(F)F)CC1 (stereo not shown) [Example 242, 1-Acetyl-piperidine-4-carboxylic acid 5-[1-(2-hydroxy-3-pyrrolidin-1-yl-propyl)-5-methanesulfonyl-4,5,6,7-tetrahydro-1H-pyrazolo[4,3-c]pyridin-3-yl]-2-trifluoromethyl-benzylamide] | 1030 nM
21 | CC(=O)NC1CCN(CC(O)Cn2nc(-c3ccc(C(F)(F)F)c(CNC(=O)c4ccc(F)cc4)c3)c3c2CCN(S(C)(=O)=O)C3)C1 (stereo not shown) [Example 93, N-(5-{1-[3-(3-Acetylamino-pyrrolidin-1-yl)-2-hydroxy-propyl]-5-methanesulfonyl-4,5,6,7-tetrahydro-1H-pyrazolo[4,3-c]pyridin-3-yl}-2-trifluoromethyl-benzyl)-4-fluoro-benzamide] | 170 nM
22 | CN(C)C1CCN(CC(O)Cn2nc(-c3ccc(Cl)c(CNC(=O)c4ccc(F)cc4)c3)c3c2CCN(S(C)(=O)=O)C3)CC1 (stereo not shown) [Example 85, N-(2-Chloro-5-{1-[3-(4-dimethylamino-piperidin-1-yl)-2-hydroxy-propyl]-5-methanesulfonyl-4,5,6,7-tetrahydro-1H-pyrazolo[4,3-c]pyridin-3-yl}-benzyl)-4-fluoro-benzamide] | 450 nM
23 | CS(=O)(=O)N1CCc2c(c(-c3ccc(C(F)(F)F)c(CNc4ncccn4)c3)nn2CC(O)CN2CCCC2)C1 (stereo not shown) [Example 65, 1-{5-Methanesulfonyl-3-[3-(pyrimidin-2-ylaminomethyl)-4-trifluoromethyl-phenyl]-4,5,6,7-tetrahydro-pyrazolo[4,3-c]pyridin-1-yl}-3-pyrrolidin-1-yl-propan-2-ol] | 16600 nM
24 | COC1CCN(CC(O)Cn2nc(-c3ccc(Cl)c(CNC(=O)c4ccc(F)cc4)c3)c3c2CCN(S(C)(=O)=O)C3)CC1 (stereo not shown) [Example 75, N-(2-Chloro-5-{1-[2-hydroxy-3-(4-methoxy-piperidin-1-yl)-propyl]-5-methanesulfonyl-4,5,6,7-tetrahydro-1H-pyrazolo[4,3-c]pyridin-3-yl}-benzyl)-4-fluoro-benzamide] | 140 nM
25 | CS(=O)(=O)N1CCc2c(c(-c3ccc(Cl)c(CNC(=O)c4ccc(F)cc4)c3)nn2CC(O)CN2CCC(F)(F)CC2)C1 (stereo not shown) [Example 10, N-(2-Chloro-5-{1-[3-(4,4-difluoro-piperidin-1-yl)-2-hydroxy-propyl]-5-methanesulfonyl-4,5,6,7-tetrahydro-1H-pyrazolo[4,3-c]pyridin-3-yl}-benzyl)-4-fluoro-benzamide] | 90 nM
